Assay results taken from patent US9492508B2, “Parathyroid hormone analogs and uses thereof” (The General Hospital Corporation, priority 2010, dated 2016).

Experiments:
in vivo = details: Crl:CD(SD), rat, iv, 24.3 nmol/kg
[1] = rat, in vivo, iv, 24.3 nmol/kg

MRT (in vivo): 11.4 min
Vd (in vivo): 0.211 L/kg
clearance (in vivo): 18.5 mL/min/kg
half-life (in vivo): 7.78 min
AUCinf [1]: 1315 pmol·min/mL
AUClast [1]: 1308 pmol·min/mL
Compound: CC[C@H](C)[C@H](NC(=O)[C@H](CCC(=O)O)NC(=O)[C@H](CO)NC(=O)[C@@H](NC(=O)[C@@H](N)CO)C(C)C)C(=O)N[C@@H](CCC(N)=O)C(=O)N[C@@H](CC(C)C)C(=O)N[C@@H](CCSC)C(=O)N[C@@H](Cc1cnc[nH]1)C(=O)N[C@@H](CC(N)=O)C(=O)N[C@@H](CC(C)C)C(=O)NCC(=O)N[C@@H](CCCCN)C(=O)N[C@@H](Cc1cnc[nH]1)C(=O)N[C@@H](CC(C)C)C(=O)N[C@@H](CC(N)=O)C(=O)N[C@@H](CO)C(=O)N[C@@H](CCSC)C(=O)N[C@@H](CCC(=O)O)C(=O)N[C@@H](CCCN=C(N)N)C(=O)N[C@H](C(=O)N[C@@H](CCC(=O)O)C(=O)N[C@@H](Cc1c[nH]c2ccccc12)C(=O)N[C@@H](CC(C)C)C(=O)N[C@@H](CCCN=C(N)N)C(=O)N[C@@H](CCCCN)C(=O)N[C@@H](CCCCN)C(=O)N[C@@H](CC(C)C)C(=O)N[C@@H](CCC(N)=O)C(=O)N[C@@H](CC(=O)O)C(=O)N[C@H](C(=O)N[C@@H](Cc1cnc[nH]1)C(=O)N[C@@H](CC(N)=O)C(=O)N[C@@H](Cc1ccccc1)C(=O)O)C(C)C)C(C)C [PTH(1-34), hPTH(1-34)OH, reference compound]
